Experiment [1] has as its system HUVEC. Briefly: Antiangiogenic activity in HUVEC assessed as reduction in tube formation by matrigel assay. Format: functional, cell-based. Conditions: Homo sapiens.
Experiment [2] relates to A549. Kind of experiment: Induction of apoptosis in human A549 cells assessed as hypodiploid DNA at 5 uM after 72 hrs by flow cytometry. Format: functional, cell-based. On the technique in general: Flow cytometry measures light scatter and fluorescence of single cells or particles in a stream.
Experiment [3] has as its system HUVEC. Kind of experiment: Antimigratory activity in HUVEC at 2 uM. The experiment is classed as functional, cell-based. Conditions: Homo sapiens.
Experiment [4] has as its system A549. Kind of experiment: Cell cycle arrest in human A549 cells assessed as accumulation at sub-G0/G1 phase at 5 uM after 72 hrs by flow cytometry. Format: functional.
For experiment [5], the system named is A549. Kind of experiment: Cytotoxicity against human A549 cells. The experiment is classed as functional, cell-based.
For the next experiment, the system named is HCT-116. Kind of experiment: Cytotoxicity against human HCT116 cells. The experiment is classed as functional, cell-based.
Experiment [6] deals with A549. Kind of experiment: Induction of apoptosis in human A549 cells assessed as DNA fragmentation at 1.25 to 5 uM after 72 hrs by flow cytometry. Format: functional, cell-based.
Experiment [7] has as its target Fibroblast growth factor receptor 2 (Homo sapiens) (UniProt P21802). Kind of experiment: Inhibition of FGFR2 (unknown origin) at 50 uM.
Experiment [8] can be described thus: Cytotoxicity against human ECA109 cells. Format: functional, cell-based. Conditions: ECa-109.
Experiment [9] has as its system HUVEC. Kind of experiment: Antiangiogenic activity in HUVEC assessed as reduction in anastomoses formation by matrigel assay. The experiment is classed as functional, cell-based. Conditions: Homo sapiens.
Experiment [10] is described as follows: Cytotoxicity against human SGC7901 cells. The experiment is classed as functional, cell-based. Conditions: SGC-7901.
Experiment [11] relates to A549. Briefly: Induction of apoptosis in human A549 cells at 5 uM after 72 hrs by flow cytometry. Format: functional.

Each structure is given as a SMILES string. The source made the active and inactive calls. The rule behind the calls is not given here. A value given as a limit tells only on which side of the number the result lay.

Chain of Fibroblast growth factor receptor 2 (Homo sapiens) (P21802 22-821 limits assumed): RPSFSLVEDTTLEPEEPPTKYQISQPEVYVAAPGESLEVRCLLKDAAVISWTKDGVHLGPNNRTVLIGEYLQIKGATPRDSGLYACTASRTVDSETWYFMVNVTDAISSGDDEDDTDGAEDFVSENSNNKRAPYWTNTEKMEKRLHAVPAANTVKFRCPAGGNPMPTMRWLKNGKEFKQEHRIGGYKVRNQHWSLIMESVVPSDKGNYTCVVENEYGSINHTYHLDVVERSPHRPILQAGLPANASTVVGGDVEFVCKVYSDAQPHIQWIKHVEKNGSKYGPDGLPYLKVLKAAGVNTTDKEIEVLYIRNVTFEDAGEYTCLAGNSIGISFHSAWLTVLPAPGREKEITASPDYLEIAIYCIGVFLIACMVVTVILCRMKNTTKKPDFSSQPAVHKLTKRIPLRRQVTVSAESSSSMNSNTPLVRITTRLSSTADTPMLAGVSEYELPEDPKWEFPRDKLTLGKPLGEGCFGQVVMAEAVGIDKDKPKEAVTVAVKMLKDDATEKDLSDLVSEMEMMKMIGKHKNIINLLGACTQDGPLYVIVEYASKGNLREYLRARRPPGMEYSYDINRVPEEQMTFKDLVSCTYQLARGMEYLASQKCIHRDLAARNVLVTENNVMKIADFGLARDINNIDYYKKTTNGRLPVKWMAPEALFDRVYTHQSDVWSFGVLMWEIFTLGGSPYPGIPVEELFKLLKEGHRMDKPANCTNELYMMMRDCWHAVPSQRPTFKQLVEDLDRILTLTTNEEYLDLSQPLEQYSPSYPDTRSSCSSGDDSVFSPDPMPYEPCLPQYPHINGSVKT

Consider `CCN(CC)CCNC(=O)c1c(C)[nH]c(/C=C2\C(=O)Nc3ccc(/C=C/S(=O)(=O)c4ccc(F)cc4)cc32)c1C`, for which the results for the Activity result in the experiment with HUVEC [1], in the experiment with A549 [4] and in the experiment with HUVEC [9] were “Dose-dependent effect”, 68.21% and “Dose-dependent effect”, respectively. Further, the outcome in the experiment with A549 [2], with HUVEC [3] and in the experiment on A549 [6] was Active. Moreover, the inhibition (in general, how much of the control response was suppressed) with A549 [5] is “Dose-dependent effect”; in experiment [7], 76.6%. In addition, the IC50 (in general, the point on the concentration scale where inhibition reaches its midpoint) with HCT-116 came out at 1.82 µM; in experiment [8] it was 5.74 µM; in experiment [10], 6.87 µM.
Regarding `CCN(CC)CCNC(=O)c1c(C)[nH]c(/C=C2\C(=O)Nc3ccc(S(=O)(=O)/C=C/c4ccccc4)cc32)c1C`, the IC50 in the experiment with A549 [5] was 2.87 µM; in the experiment with HCT-116, 2.41 µM; in [8], 1.37 µM; in [10] it was 4.99 µM.
As to `CCN(CC)CCNC(=O)c1c(C)[nH]c(/C=C2\C(=O)Nc3ccc(/C=C/S(=O)(=O)c4ccc(Br)cc4)cc32)c1C`, the IC50 in the experiment with A549 [5] worked out at 5.21 µM; with HCT-116, 3.35 µM; in experiment [8], 6.23 µM; in experiment [10], 2.28 µM. In experiment [7], the inhibition was 67.8%.
For `CCN(CC)CCNC(=O)c1c(C)[nH]c(/C=C2\C(=O)Nc3ccc(/C=C/S(=O)(=O)Cc4ccc(Cl)cc4)cc32)c1C`, the IC50 in the experiment with A549 [5] was greater than 25.3 µM; with HCT-116, greater than 25 µM; in experiment [8] it was greater than 25 µM; in experiment [10], greater than 25 µM.
As for `CCN(CC)CCNC(=O)c1c(C)[nH]c(/C=C2\C(=O)Nc3ccc(F)cc32)c1C` [SUNITINIB], the figures for the Activity result in the experiment with HUVEC [1], in the experiment on A549 [11] and in the experiment on HUVEC [9] were “Dose-dependent effect”, 15.81% and “Dose-dependent effect”, respectively. The IC50 was found to be 18.6 µM with A549 [5], 2.11 µM in the experiment with HCT-116, 16.9 µM in [8] and 18.6 µM in [10]. In addition, the inhibition in experiment [7] is 61.8%.
Turning to `CCN(CC)CCNC(=O)c1c(C)[nH]c(/C=C2\C(=O)Nc3ccc(/C=C/S(=O)(=O)Cc4cccc(F)c4)cc32)c1C`, the IC50 with A549 [5] was determined as 8.41 µM; with HCT-116, 12.7 µM; in [8], 7.33 µM; in experiment [10], 11.1 µM.
The matching figures for `Cc1[nH]c(/C=C2\C(=O)Nc3ccc(/C=C/S(=O)(=O)c4ccc(F)cc4)cc32)c(C)c1C(=O)NCCN(C)C`: 6.62 µM, 7.2 µM, 2.99 µM and 6.25 µM.
Regarding `CCN(CC)CCNC(=O)c1c(C)[nH]c(/C=C2\C(=O)Nc3ccc(S(=O)(=O)/C=C/c4ccc(Cl)cc4)cc32)c1C`, the IC50 in the experiment on A549 [5] amounted to 2.85 µM; with HCT-116, 1.95 µM; in [8], 4.84 µM; in experiment [10] it was 2.58 µM. The inhibition in [7] turned out to be 72%.
Turning to `CCN(CC)CCNC(=O)c1c(C)[nH]c(/C=C2\C(=O)Nc3ccc(/C=C/S(=O)(=O)Cc4ccccc4)cc32)c1C`, the IC50 in the experiment with A549 [5] came to 8.05 µM; in the experiment with HCT-116, 13.7 µM; in experiment [8], 10.6 µM; in [10], 14.5 µM.
Consider `CCN(CC)CCNC(=O)c1c(C)[nH]c(/C=C2\C(=O)Nc3ccc(/C=C/S(C)(=O)=O)cc32)c1C`, for which the IC50 in the experiment on A549 [5] came out at 29.1 µM; with HCT-116, 2.64 µM; in experiment [8] it was 12.5 µM; in experiment [10], 16.7 µM.
The matching figures for `CCN(CC)CCNC(=O)c1c(C)[nH]c(/C=C2\C(=O)Nc3ccc(/C=C/S(=O)(=O)Cc4ccc(F)cc4)cc32)c1C`: greater than 12.5 µM, greater than 12.5 µM, greater than 12.5 µM and greater than 12.5 µM.
With `Cc1[nH]c(/C=C2\C(=O)Nc3ccc(/C=C/S(=O)(=O)c4ccc(F)cc4)cc32)c(C)c1C(=O)NCCCN(C)C`, the IC50 was greater than 12.5 µM in the experiment on A549 [5], 9.84 µM with HCT-116, 2.87 µM in [8] and 6.35 µM in experiment [10].
`O=c1c(O)c(-c2ccc(O)c(O)c2)oc2cc(O)cc(O)c12` gave an inhibition in experiment [7] of 67.3%.
Turning to `CCN(CC)CCNC(=O)c1c(C)[nH]c(/C=C2\C(=O)Nc3ccc(/C=C/S(=O)(=O)c4ccccc4)cc32)c1C`, the IC50 in the experiment with A549 [5] worked out at 6.86 µM; in the experiment on HCT-116 it was 6.44 µM; in experiment [8] it was 2.7 µM; in [10], 5.82 µM.
Turning to `CCN(CC)CCCNC(=O)c1c(C)[nH]c(/C=C2\C(=O)Nc3ccc(/C=C/S(=O)(=O)c4ccc(F)cc4)cc32)c1C`, the IC50 in the experiment on A549 [5] was greater than 12.5 µM; in the experiment on HCT-116, 5.77 µM; in experiment [8], 4.75 µM; in experiment [10], 3.45 µM.
